Source: article PMC4928820 (Molecular Pharmaceutics, 2015)

Experiments:
[1] = water-saturated tricaprylin compared to dry tricaprylin ref 34; cited from earlier work
[2] = format: physicochemical; conditions: 37 °C, mean ± SD, triplicate; for Thermodynamic solubility in Carbitol: cosolvent; for Thermodynamic solubility in Maisine 35-1: long-chain mono-; for Thermodynamic solubility in Maisine 35-1 / Thermodynamic solubility in Capmul MCM EP: di-, triglyceride; for Thermodynamic solubility in Capmul MCM EP: medium-chain mono-; for Thermodynamic solubility in Cremophor EL: surfactant (≤3% w/w water)

SMILES | Increase of solubility [1] | Thermodynamic solubility in Carbitol [2] | Thermodynamic solubility in Maisine 35-1 [2] | Thermodynamic solubility in Capmul MCM EP [2] | Thermodynamic solubility in Cremophor EL [2]
CNC(=O)c1ccccc1 [N-methylbenzamide] | more than 50% |  |  |  | 
COc1cc(C)c(/C=C/C(C)=C/C=C/C(C)=C/C(=O)O)c(C)c1C [acitretin] |  | 3.52 ± 0.20 mg/g | 0.62 ± 0.06 mg/g | 1.54 ± 0.10 mg/g | 2.85 ± 0.14 mg/g
CCCSc1ccc2nc(NC(=O)OC)[nH]c2c1 [albendazole] |  | 5.99 ± 0.19 mg/g | 3.86 ± 0.21 mg/g | 3.17 ± 0.10 mg/g | 2.75 ± 0.14 mg/g
CC(C)(Oc1ccc(CCNC(=O)c2ccc(Cl)cc2)cc1)C(=O)O [bezafibrate] |  | 43.0 ± 1.83 mg/g | 1.55 ± 0.05 mg/g | 6.36 ± 0.26 mg/g | 37.9 ± 5.23 mg/g
CCOc1nc2cccc(C(=O)OC(C)OC(=O)OC3CCCCC3)c2n1Cc1ccc(-c2ccccc2-c2nnn[nH]2)cc1 (stereo not drawn) [candesartan cilexetil] |  | 77.0 ± 2.04 mg/g | 1.99 ± 0.19 mg/g | 9.07 ± 0.38 mg/g | 26.4 ± 1.46 mg/g
CCOc1nc2cccc(C(=O)O)c2n1Cc1ccc(-c2ccccc2-c2nnn[nH]2)cc1 [candesartan] |  | 20.5 ± 1.26 mg/g | ≤0.41 mg/g | 3.19 ± 0.14 mg/g | 11.3 ± 0.67 mg/g
NC(=O)N1c2ccccc2C=Cc2ccccc21 [carbamazepine] |  | 82.9 ± 1.80 mg/g | 30.0 ± 1.66 mg/g | 55.5 ± 3.23 mg/g | 34.5 ± 1.06 mg/g
CC(C)/N=c1\cc2n(-c3ccc(Cl)cc3)c3ccccc3nc-2cc1Nc1ccc(Cl)cc1 [clofazimine] |  | 22.8 ± 0.54 mg/g | 11.7 ± 0.24 mg/g | 16.3 ± 0.44 mg/g | 15.9 ± 0.83 mg/g
Clc1ccccc1C(c1ccccc1)(c1ccccc1)n1ccnc1 [clotrimazole] |  | 135.0 ± 3.57 mg/g | 75.4 ± 8.95 mg/g | 136.7 ± 5.94 mg/g | 44.1 ± 3.01 mg/g
O=C(O)c1cc(-c2ccc(F)cc2F)ccc1O [diflunisal] |  | 286.3 ± 13.4 mg/g | 31.6 ± 0.99 mg/g | 53.4 ± 1.29 mg/g | 157.9 ± 6.54 mg/g
OCCN(CCO)c1nc(N2CCCCC2)c2nc(N(CCO)CCO)nc(N3CCCCC3)c2n1 [dipyridamole] |  | 43.1 ± 2.40 mg/g | 3.02 ± 0.16 mg/g | 12.3 ± 0.36 mg/g | 9.57 ± 0.29 mg/g
CCN(CC)C(=S)SSC(=S)N(CC)CC [disulfiram] |  | 162.6 ± 8.46 mg/g | 49.0 ± 3.05 mg/g | 47.2 ± 2.05 mg/g | 88.8 ± 3.66 mg/g
C#C[C@]1(O)CC[C@H]2[C@@H]3CCc4cc(O)ccc4[C@H]3CC[C@@]21C [ethinylestradiol] |  | 247.1 ± 8.93 mg/g | 22.1 ± 1.83 mg/g | 56.3 ± 1.76 mg/g | 163.9 ± 10.1 mg/g
CCOC(=O)C1=C(C)NC(C)=C(C(=O)OC)C1c1cccc(Cl)c1Cl (stereo not drawn) [felodipine] |  | 217.2 ± 16.0 mg/g | 37.7 ± 1.37 mg/g | 80.2 ± 2.22 mg/g | 125.1 ± 6.23 mg/g
COC(=O)Nc1nc2ccc(Sc3ccccc3)cc2[nH]1 [fenbendazole] |  | 4.13 ± 0.28 mg/g | 0.69 ± 0.11 mg/g | 1.28 ± 0.09 mg/g | 2.07 ± 0.09 mg/g
CC(C)(Oc1ccc(C(=O)c2ccc(Cl)cc2)cc1)C(=O)O [fenofibric acid] |  | 92.8 ± 4.81 mg/g | 7.38 ± 0.22 mg/g | 14.5 ± 0.50 mg/g | 58.4 ± 2.59 mg/g

SMILES | Increase of solubility [1] | Thermodynamic solubility in Carbitol [2] | Thermodynamic solubility in Maisine 35-1 [2] | Thermodynamic solubility in Capmul MCM EP [2] | Thermodynamic solubility in Cremophor EL [2]
COc1ccc(Cl)cc1C(=O)NCCc1ccc(S(=O)(=O)NC(=O)NC2CCCCC2)cc1 [glibenclamide] |  | 21.1 ± 0.46 mg/g | 0.52 ± 0.14 mg/g | 5.49 ± 0.26 mg/g | 11.2 ± 1.01 mg/g
COC1=CC(=O)C[C@@H](C)[C@]12Oc1c(Cl)c(OC)cc(OC)c1C2=O [griseofulvin] |  | 18.9 ± 0.99 mg/g | 2.43 ± 0.05 mg/g | 5.56 ± 0.21 mg/g | 9.70 ± 0.36 mg/g
CCCCN(CCCC)CCC(O)c1cc2c(Cl)cc(Cl)cc2c2cc(C(F)(F)F)ccc12 (stereo not drawn) [halofantrine] |  | 79.3 ± 7.90 mg/g | 71.2 ± 4.58 mg/g | 52.6 ± 3.01 mg/g | 27.9 ± 0.79 mg/g
O=C(CCCN1CCC(O)(c2ccc(Cl)cc2)CC1)c1ccc(F)cc1 [haloperidol] |  | 27.2 ± 1.82 mg/g | 3.57 ± 0.16 mg/g | 13.4 ± 0.51 mg/g | 11.3 ± 0.82 mg/g
COc1ccc2c(c1)c(CC(=O)O)c(C)n2C(=O)c1ccc(Cl)cc1 [indomethacin] |  | 187.4 ± 7.08 mg/g | 13.0 ± 0.88 mg/g | 28.6 ± 1.30 mg/g | 71.6 ± 4.57 mg/g
CCC(C)n1ncn(-c2ccc(N3CCN(c4ccc(OCC5COC(Cn6cncn6)(c6ccc(Cl)cc6Cl)O5)cc4)CC3)cc2)c1=O (stereo not drawn) [itraconazole] |  | 6.30 ± 0.55 mg/g | 2.26 ± 0.16 mg/g | 5.60 ± 0.67 mg/g | 1.92 ± 0.29 mg/g
Cc1cccc(Nc2ccccc2C(=O)O)c1C [mefenamic acid] |  | 43.6 ± 1.52 mg/g | 5.38 ± 0.40 mg/g | 9.63 ± 0.40 mg/g | 30.7 ± 0.89 mg/g
O=C(Nc1ccc([N+](=O)[O-])cc1Cl)c1cc(Cl)ccc1O [niclosamide] |  | 49.6 ± 2.62 mg/g | 3.97 ± 0.19 mg/g | 10.1 ± 0.40 mg/g | 44.1 ± 1.75 mg/g
COc1ccc2c(c1OC)C(=O)O[C@@H]2[C@H]1c2c(cc3c(c2OC)OCO3)CCN1C [noscapine] |  | 25.6 ± 1.00 mg/g | 5.36 ± 0.61 mg/g | 7.23 ± 0.20 mg/g | 12.3 ± 0.25 mg/g
O=C(C1CCCCC1)N1CC(=O)N2CCc3ccccc3C2C1 (stereo not drawn) [praziquantel] |  | 116.9 ± 14.8 mg/g | 85.9 ± 5.32 mg/g | 184.9 ± 12.4 mg/g | 45.4 ± 3.51 mg/g
CC(=O)[C@H]1CC[C@H]2[C@@H]3CCC4=CC(=O)CC[C@]4(C)[C@H]3CC[C@]12C [progesterone] |  | 67.02 ± 1.36 mg/g | 66.2 ± 4.87 mg/g | 99.1 ± 2.94 mg/g | 41.1 ± 1.27 mg/g
CC(C)(C)NC(=O)[C@@H]1C[C@@H]2CCCC[C@@H]2CN1C[C@@H](O)[C@H](Cc1ccccc1)NC(=O)[C@H](CC(N)=O)NC(=O)c1ccc2ccccc2n1 [saquinavir] |  | ≥317 mg/g | ≥123 mg/g | ≥288 mg/g | 
O=C(O)c1cc(/N=N/c2ccc(S(=O)(=O)Nc3ccccn3)cc2)ccc1O [sulfasalazine] |  | 16.4 ± 0.72 mg/g | 0.16 ± 0.02 mg/g | 3.16 ± 0.06 mg/g | 13.1 ± 1.02 mg/g
Cc1c(Cl)cccc1Nc1ccccc1C(=O)O [tolfenamic acid] |  | 85.5 ± 4.29 mg/g | 14.1 ± 1.18 mg/g | 26.0 ± 1.45 mg/g | 70.6 ± 3.87 mg/g
Cc1cc(-n2c(=O)[nH]c(=O)n(C)c2=O)ccc1Oc1ccc(SC(F)(F)F)cc1 [toltrazuril] |  | 50.2 ± 2.47 mg/g | 7.90 ± 1.03 mg/g | 11.8 ± 0.59 mg/g | 19.7 ± 3.11 mg/g
